Experimental data reported in patent publication US10300066B2, “Polyfluorinated compounds acting as bruton tyrosine kinase inhibitors” (ZHEJIANG DTRM BIOPHARMA CO. LTD., priority 2014, dated 2019).

Tests used:
[1] = 28-day toxicokinetic (TK) study in rats; assay type: in vivo, rat; conditions: for AUC: rat, in vivo, read-out: AUC (area under the curve)
[2] = Toxicity and TK studies, 28-day rat and dog; conditions: 28-day rat and dog studies
Description: Toxicity and toxicokinetic (TK) studies of the compounds can be performed by well known methods.

[3] = 28-day toxicokinetic (TK) study in dogs; assay type: in vivo, dog; conditions: for AUC: dog, in vivo, 15 mg/kg
[4] = 100 mg/kg, Study Day 28, Female
[5] = 45 mg/kg/day, Study Day 1, Female

## C=CC(=O)N1CC[C@@H](n2nc(-c3ccc(Oc4c(F)c(F)cc(F)c4F)cc3F)c3c(N)ncnc32)C1 [Compound 45, 1-((R)-3-(4-amino-3-(2-fluoro-4-(2,3,5,6-tetrafluorophenoxy)phenyl)-1H-pyrazolo[3,4-d]pyrimidin-1-yl)pyrrolidin-1-yl)prop-2-en-1-one]
[1]
  AUC compared to ibrutinib: significantly higher
[1]; 40 mg/kg, Study Day 1, Female
  Cmax: 2660 ng/mL
[1]; 40 mg/kg, Study Day 28, Male
  Cmax: 2090 ng/mL
[1]; [4]
  AUC0-24 h: 29600 ng·h/mL
  Cmax: 3830 ng/mL
[1]; 100 mg/kg, Study Day 28, Male
  AUC0-24 h: 30300 ng·h/mL
[1]; 200 mg/kg, Study Day 28, Male
  Cmax: 4540 ng/mL
[1]; 40 mg/kg, female
  AUC: 17300 ng·h/mL
[1]; 40 mg/kg, male
  AUC: 13700 ng·h/mL
[2]
  Bioavailability compared to ibrutinib: superior bioavailability
  Drug exposure, Day 1 versus Day 28: no significant difference
  Drug exposure, male versus female: no significant difference
  Pharmacokinetics compared to ibrutinib: excellent pharmacokinetics
  Toxicity compared to ibrutinib: low toxicity
[3]
  AUC compared to ibrutinib: significantly higher
[3]; [5]
  AUC0-24 h: 6220 ± 3000 ng·h/mL
  Cmax: 1220 ± 431 ng/mL
[3]; 150 mg/kg/day, Study Day 1, Male
  Cmax: 2460 ± 858 ng/mL
[3]; female
  AUC: 2930 ng·h/mL
[3]; male
  AUC: 3550 ng·h/mL
